{"source": "ChEMBL document CHEMBL4507266", "about": "“Data for DCP probe BAY-784” (2021)", "key": {"[1]": {"biological_target": "Interleukin-1 receptor-associated kinase 3 (Homo sapiens) (UniProt Q9Y616)", "sequence (Q9Y616 whole entry)": "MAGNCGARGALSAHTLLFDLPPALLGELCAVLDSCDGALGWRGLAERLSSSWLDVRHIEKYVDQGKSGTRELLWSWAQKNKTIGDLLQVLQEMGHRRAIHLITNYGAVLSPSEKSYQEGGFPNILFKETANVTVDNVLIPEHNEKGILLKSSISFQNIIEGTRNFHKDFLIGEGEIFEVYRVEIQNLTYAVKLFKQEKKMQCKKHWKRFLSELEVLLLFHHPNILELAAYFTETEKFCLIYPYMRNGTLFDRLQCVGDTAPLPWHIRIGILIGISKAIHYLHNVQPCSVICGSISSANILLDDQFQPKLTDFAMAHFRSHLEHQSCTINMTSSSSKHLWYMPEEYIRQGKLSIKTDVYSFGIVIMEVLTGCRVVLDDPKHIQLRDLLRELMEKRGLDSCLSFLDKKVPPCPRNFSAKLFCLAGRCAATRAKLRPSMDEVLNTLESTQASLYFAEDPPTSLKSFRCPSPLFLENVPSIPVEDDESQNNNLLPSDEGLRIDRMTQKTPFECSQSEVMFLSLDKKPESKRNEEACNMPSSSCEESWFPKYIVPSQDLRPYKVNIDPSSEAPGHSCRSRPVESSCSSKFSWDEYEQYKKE", "conditions": "Compound concentration 1000.0 nM"}, "[2]": {"biological_target": "Serine/threonine-protein kinase TAO2 (Homo sapiens) (UniProt Q9UL54)", "conditions": "Compound concentration 1000.0 nM"}, "[3]": {"biological_target": "Calcium/calmodulin-dependent protein kinase type 1D (Homo sapiens) (UniProt Q8IU85)", "conditions": "Compound concentration 1000.0 nM"}, "[4]": {"biological_target": "Rho-associated protein kinase 2 (Homo sapiens) (UniProt O75116)", "sequence (O75116 whole entry, looked up)": "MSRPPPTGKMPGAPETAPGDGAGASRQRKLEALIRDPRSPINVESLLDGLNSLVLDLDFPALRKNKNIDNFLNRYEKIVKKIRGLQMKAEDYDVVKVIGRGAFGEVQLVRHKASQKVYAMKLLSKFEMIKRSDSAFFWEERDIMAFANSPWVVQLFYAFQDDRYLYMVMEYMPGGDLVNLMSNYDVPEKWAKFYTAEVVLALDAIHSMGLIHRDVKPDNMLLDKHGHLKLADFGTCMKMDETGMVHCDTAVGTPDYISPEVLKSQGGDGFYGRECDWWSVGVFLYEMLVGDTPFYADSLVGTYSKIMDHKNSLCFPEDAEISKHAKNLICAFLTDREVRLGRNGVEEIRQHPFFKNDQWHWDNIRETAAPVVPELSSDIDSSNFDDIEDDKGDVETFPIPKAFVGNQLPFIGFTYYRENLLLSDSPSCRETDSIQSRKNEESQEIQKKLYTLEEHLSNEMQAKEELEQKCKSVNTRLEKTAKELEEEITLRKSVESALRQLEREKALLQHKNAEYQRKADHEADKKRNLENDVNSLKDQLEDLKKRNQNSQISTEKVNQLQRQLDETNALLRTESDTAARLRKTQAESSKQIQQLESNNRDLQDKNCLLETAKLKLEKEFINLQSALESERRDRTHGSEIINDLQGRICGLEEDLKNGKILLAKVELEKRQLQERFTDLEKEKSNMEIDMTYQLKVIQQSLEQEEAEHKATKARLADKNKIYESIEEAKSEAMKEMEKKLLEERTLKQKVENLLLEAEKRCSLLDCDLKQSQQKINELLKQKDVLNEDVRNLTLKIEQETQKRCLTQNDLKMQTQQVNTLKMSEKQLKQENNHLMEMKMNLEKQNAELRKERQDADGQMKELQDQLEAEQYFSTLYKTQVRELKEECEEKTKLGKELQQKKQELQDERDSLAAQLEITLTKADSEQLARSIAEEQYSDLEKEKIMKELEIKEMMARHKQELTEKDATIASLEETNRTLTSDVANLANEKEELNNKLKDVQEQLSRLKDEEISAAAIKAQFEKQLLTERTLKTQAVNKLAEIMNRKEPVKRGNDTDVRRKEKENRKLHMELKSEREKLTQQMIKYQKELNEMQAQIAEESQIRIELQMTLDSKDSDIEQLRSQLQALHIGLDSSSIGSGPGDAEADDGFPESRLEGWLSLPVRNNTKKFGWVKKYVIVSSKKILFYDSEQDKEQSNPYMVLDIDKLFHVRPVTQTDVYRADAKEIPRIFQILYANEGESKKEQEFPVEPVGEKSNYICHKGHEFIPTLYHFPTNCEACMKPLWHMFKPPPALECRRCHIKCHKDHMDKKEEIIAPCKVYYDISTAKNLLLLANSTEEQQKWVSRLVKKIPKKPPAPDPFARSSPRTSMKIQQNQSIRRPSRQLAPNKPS", "conditions": "Compound concentration 1000.0 nM"}, "[5]": {"tested_on": "Mast/stem cell growth factor receptor Kit (Homo sapiens), P10721 [V559D]", "conditions": "Compound concentration 1000.0 nM"}, "[6]": {"biological_target": "T1, D(4) dopamine receptor (Homo sapiens) (UniProt P21917)", "T1 sequence (whole entry)": "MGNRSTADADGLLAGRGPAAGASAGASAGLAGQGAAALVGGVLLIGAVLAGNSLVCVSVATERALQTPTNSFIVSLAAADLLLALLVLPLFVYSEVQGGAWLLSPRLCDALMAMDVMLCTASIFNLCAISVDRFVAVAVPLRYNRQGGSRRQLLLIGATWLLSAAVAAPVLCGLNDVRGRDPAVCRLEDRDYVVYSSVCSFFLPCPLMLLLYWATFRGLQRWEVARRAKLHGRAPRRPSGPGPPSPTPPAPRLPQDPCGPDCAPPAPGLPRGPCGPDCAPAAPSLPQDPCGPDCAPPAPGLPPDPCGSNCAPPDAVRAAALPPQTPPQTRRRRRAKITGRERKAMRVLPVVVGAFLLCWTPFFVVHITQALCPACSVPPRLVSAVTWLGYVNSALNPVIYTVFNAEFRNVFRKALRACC", "conditions": "Compound concentration 10.0 uM"}, "[7]": {"biological_target": "Dual specificity tyrosine-phosphorylation-regulated kinase 2 (Homo sapiens) (UniProt Q92630)", "conditions": "Compound concentration 1000.0 nM"}, "[8]": {"biological_target": "Ribosomal protein S6 kinase alpha-2 (Homo sapiens) (UniProt Q15349)", "conditions": "Compound concentration 1000.0 nM"}, "[9]": {"biological_target": "T2, 5-hydroxytryptamine receptor 2C (Homo sapiens) (UniProt P28335)", "T2 sequence (whole entry)": "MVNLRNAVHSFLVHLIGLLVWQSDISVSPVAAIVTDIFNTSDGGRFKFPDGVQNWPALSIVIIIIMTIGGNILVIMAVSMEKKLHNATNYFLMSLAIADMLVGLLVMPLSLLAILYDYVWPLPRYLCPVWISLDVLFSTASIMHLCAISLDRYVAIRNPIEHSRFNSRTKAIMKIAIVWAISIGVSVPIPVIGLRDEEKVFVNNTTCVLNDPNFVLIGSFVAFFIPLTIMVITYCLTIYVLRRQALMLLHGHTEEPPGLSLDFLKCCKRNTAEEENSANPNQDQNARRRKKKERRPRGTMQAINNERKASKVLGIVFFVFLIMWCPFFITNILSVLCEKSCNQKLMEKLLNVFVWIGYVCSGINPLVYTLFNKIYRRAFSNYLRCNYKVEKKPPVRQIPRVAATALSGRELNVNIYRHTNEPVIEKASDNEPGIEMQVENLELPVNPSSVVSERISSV", "conditions": "Compound concentration 10.0 uM"}, "[10]": {"biological_target": "Receptor-type tyrosine-protein kinase FLT3 (Homo sapiens) (UniProt P36888)", "conditions": "Compound concentration 1000.0 nM"}, "[11]": {"biological_target": "Serine/threonine-protein kinase 32B (Homo sapiens) (UniProt Q9NY57)", "sequence (Q9NY57 whole entry)": "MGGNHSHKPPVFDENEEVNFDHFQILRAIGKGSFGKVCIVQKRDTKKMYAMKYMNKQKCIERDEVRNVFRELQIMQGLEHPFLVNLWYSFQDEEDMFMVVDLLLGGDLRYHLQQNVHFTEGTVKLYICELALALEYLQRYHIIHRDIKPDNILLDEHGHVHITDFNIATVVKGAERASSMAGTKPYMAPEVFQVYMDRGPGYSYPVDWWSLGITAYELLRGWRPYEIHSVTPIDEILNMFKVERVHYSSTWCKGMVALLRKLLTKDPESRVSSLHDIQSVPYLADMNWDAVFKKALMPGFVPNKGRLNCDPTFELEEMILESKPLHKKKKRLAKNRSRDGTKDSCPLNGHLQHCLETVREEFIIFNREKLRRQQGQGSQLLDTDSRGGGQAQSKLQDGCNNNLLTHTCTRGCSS", "conditions": "Compound concentration 1000.0 nM"}, "[12]": {"biological_target": "Sigma intracellular receptor 2 (Homo sapiens, UniProt Q5BJF2)", "sequence (Q5BJF2 whole entry)": "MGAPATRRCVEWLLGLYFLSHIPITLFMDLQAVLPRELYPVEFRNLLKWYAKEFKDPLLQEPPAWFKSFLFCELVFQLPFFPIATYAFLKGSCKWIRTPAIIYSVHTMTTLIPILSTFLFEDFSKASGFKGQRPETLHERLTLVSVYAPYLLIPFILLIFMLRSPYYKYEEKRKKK", "assay": "GPCRScan assay: inhibition of Sigma 2", "set-up": "radioligand conc. used [nm] 5.0, parental cells HEKT"}, "[13]": {"biological_target": "Cyclin-dependent kinase-like 2 (Homo sapiens) (UniProt Q92772)", "sequence (Q92772 whole entry)": "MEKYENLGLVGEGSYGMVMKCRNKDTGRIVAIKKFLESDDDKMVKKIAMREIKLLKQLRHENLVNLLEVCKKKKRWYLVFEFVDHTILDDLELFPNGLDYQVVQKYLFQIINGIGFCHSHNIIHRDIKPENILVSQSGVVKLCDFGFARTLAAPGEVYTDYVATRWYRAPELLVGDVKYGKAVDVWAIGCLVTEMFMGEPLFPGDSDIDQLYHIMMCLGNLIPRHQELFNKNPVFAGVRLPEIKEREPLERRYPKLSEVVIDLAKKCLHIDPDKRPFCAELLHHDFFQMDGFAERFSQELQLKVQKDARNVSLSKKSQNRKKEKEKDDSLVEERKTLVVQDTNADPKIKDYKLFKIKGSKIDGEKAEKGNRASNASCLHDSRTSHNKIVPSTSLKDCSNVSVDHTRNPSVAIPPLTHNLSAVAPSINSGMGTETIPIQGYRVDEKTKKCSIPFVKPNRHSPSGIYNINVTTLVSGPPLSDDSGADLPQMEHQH", "conditions": "Compound concentration 1000.0 nM"}, "[14]": {"biological_target": "T3, Alpha-2C adrenergic receptor (Homo sapiens) (UniProt P18825)", "T3 sequence (whole entry)": "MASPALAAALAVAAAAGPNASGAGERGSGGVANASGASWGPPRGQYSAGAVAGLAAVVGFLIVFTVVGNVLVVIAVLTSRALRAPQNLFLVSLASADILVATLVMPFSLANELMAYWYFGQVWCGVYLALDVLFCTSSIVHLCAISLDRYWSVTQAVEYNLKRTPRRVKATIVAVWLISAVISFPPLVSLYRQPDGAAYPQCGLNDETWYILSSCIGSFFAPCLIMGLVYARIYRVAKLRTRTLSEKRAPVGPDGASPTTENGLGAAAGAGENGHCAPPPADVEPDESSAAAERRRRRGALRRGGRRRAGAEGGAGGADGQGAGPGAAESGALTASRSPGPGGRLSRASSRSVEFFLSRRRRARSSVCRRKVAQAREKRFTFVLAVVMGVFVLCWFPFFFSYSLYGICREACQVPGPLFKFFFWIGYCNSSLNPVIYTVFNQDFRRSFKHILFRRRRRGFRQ", "conditions": "Compound concentration 10.0 uM"}, "[15]": {"biological_target": "T4, Muscarinic acetylcholine receptor M2 (Homo sapiens) (UniProt P08172)", "T4 sequence (whole entry)": "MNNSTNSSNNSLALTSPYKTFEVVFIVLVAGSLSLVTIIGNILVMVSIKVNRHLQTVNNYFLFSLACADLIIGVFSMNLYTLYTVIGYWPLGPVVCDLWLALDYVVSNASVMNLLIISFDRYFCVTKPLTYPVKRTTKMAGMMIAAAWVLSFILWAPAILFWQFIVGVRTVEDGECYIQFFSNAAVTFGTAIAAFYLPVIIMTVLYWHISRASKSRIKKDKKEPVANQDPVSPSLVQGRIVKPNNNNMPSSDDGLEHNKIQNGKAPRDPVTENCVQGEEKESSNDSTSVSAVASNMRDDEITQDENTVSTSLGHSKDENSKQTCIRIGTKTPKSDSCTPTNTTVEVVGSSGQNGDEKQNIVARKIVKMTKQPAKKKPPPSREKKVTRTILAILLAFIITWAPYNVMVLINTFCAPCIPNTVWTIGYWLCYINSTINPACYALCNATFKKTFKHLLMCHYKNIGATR", "conditions": "Compound concentration 10.0 uM"}, "[16]": {"biological_target": "Death-associated protein kinase 1 (Homo sapiens) (UniProt P53355)", "sequence (P53355 whole entry, looked up)": "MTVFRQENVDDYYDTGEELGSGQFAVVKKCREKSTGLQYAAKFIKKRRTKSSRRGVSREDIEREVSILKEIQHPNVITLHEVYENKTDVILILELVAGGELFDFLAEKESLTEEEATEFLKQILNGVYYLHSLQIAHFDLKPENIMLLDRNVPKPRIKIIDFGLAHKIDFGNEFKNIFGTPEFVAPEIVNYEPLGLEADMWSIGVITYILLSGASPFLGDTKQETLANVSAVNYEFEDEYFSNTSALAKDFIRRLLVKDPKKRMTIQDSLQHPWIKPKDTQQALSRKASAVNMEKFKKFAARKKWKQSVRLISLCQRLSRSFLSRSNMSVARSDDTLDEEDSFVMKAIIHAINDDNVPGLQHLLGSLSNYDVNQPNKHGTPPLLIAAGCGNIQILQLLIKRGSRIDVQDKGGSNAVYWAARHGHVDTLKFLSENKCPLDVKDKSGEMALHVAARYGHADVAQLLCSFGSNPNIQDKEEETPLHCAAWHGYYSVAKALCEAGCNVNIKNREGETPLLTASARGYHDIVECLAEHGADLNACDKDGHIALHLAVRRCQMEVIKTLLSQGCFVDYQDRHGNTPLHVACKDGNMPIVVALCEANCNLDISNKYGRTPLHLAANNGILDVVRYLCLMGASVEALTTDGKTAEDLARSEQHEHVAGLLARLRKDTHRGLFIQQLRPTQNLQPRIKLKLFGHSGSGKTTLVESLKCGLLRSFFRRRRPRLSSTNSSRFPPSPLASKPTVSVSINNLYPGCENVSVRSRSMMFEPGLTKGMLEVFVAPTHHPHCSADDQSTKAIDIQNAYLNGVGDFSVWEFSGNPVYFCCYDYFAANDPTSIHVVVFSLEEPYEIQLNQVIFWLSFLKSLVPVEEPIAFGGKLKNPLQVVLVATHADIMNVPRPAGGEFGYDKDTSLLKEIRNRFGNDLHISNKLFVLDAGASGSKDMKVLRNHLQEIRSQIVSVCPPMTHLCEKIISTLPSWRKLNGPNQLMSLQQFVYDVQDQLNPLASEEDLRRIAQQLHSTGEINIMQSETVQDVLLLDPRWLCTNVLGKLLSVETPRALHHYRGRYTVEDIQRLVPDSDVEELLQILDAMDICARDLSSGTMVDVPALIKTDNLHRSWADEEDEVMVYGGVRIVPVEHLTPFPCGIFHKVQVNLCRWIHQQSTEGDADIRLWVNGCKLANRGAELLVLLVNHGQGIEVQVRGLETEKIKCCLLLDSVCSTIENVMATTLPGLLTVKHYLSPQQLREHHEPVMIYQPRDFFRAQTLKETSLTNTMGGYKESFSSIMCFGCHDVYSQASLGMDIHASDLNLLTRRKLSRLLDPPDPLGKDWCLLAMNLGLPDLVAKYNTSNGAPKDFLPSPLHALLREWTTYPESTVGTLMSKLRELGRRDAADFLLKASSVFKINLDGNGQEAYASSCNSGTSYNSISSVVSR", "conditions": "Compound concentration 1000.0 nM"}, "[17]": {"biological_target": "Mitogen-activated protein kinase 14 (Homo sapiens) (UniProt Q16539)", "sequence (Q16539 whole entry)": "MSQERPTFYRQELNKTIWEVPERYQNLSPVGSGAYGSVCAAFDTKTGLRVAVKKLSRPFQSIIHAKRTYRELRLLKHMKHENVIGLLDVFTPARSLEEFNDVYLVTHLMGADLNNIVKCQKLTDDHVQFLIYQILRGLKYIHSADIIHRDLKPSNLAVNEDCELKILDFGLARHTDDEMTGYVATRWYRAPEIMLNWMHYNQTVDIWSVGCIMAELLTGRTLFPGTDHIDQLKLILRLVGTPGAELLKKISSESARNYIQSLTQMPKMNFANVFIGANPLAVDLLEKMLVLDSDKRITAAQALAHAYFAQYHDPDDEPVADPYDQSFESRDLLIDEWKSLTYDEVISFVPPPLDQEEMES", "conditions": "Compound concentration 1000.0 nM"}, "[18]": {"biological_target": "Tyrosine-protein kinase ABL2 (Homo sapiens) (UniProt P42684)", "conditions": "Compound concentration 1000.0 nM"}, "[19]": {"biological_target": "Serine/threonine-protein kinase WNK4 (Homo sapiens) (UniProt Q96J92)", "conditions": "Compound concentration 1000.0 nM"}, "[20]": {"biological_target": "Homeodomain-interacting protein kinase 2 (Homo sapiens) (UniProt Q9H2X6)", "conditions": "Compound concentration 1000.0 nM"}, "[21]": {"biological_target": "Phosphatidylinositol 4-kinase beta (Homo sapiens) (UniProt Q9UBF8)", "conditions": "Compound concentration 1000.0 nM"}}, "note": "pKi: −log10 of the molar value.", "data": [{"smiles": "O=C(NCc1ncc(C(F)(F)F)cc1Cl)c1ccc2c(c1)C1(CCS(=O)(=O)CC1)[C@H](C1CC1)N2S(=O)(=O)c1ccc(F)cc1", "note": "[BAY-784]", "values": [{"measurement": "residual activity", "setting": "[1]", "value": 99, "unit": "%"}, {"measurement": "residual activity", "setting": "[2]", "value": 81, "unit": "%"}, {"measurement": "residual activity", "setting": "[3]", "value": 85, "unit": "%"}, {"measurement": "residual activity", "setting": "[4]", "value": 95, "unit": "%"}, {"measurement": "residual activity", "setting": "[5]", "value": 100, "unit": "%"}, {"measurement": "inhibition", "setting": "[6]", "value": 1.57, "unit": "%"}, {"measurement": "residual activity", "setting": "[7]", "value": 95, "unit": "%"}, {"measurement": "residual activity", "setting": "[8]", "value": 100, "unit": "%"}, {"measurement": "inhibition", "setting": "[9]", "value": 9.65, "unit": "%"}, {"measurement": "residual activity", "setting": "[10]", "value": 100, "unit": "%"}, {"measurement": "residual activity", "setting": "[11]", "value": 100, "unit": "%"}, {"measurement": "pKi", "setting": "[12]", "value": 5.96}, {"measurement": "residual activity", "setting": "[13]", "value": 100, "unit": "%"}, {"measurement": "inhibition", "setting": "[14]", "value": 12.8, "unit": "%"}, {"measurement": "inhibition", "setting": "[15]", "value": 8.38, "unit": "%"}, {"measurement": "residual activity", "setting": "[16]", "value": 100, "unit": "%"}, {"measurement": "residual activity", "setting": "[17]", "value": 100, "unit": "%"}, {"measurement": "residual activity", "setting": "[18]", "value": 100, "unit": "%"}, {"measurement": "residual activity", "setting": "[19]", "value": 91, "unit": "%"}, {"measurement": "residual activity", "setting": "[20]", "value": 81, "unit": "%"}, {"measurement": "residual activity", "setting": "[21]", "value": 78, "unit": "%"}]}, {"smiles": "O=C(NCc1ncc(C(F)(F)F)cc1Cl)c1ccc2c(c1)C1(CCS(=O)(=O)CC1)[C@@H](C1CC1)N2S(=O)(=O)c1ccc(F)cc1", "note": "[BAY-786]", "values": [{"measurement": "residual activity", "setting": "[1]", "value": 100, "unit": "%"}, {"measurement": "residual activity", "setting": "[2]", "value": 64, "unit": "%"}, {"measurement": "residual activity", "setting": "[3]", "value": 99, "unit": "%"}, {"measurement": "residual activity", "setting": "[4]", "value": 93, "unit": "%"}, {"measurement": "residual activity", "setting": "[5]", "value": 85, "unit": "%"}, {"measurement": "inhibition", "setting": "[6]", "value": -5.22, "unit": "%"}, {"measurement": "residual activity", "setting": "[7]", "value": 90, "unit": "%"}, {"measurement": "residual activity", "setting": "[8]", "value": 93, "unit": "%"}, {"measurement": "inhibition", "setting": "[9]", "value": 16.9, "unit": "%"}, {"measurement": "residual activity", "setting": "[10]", "value": 100, "unit": "%"}, {"measurement": "residual activity", "setting": "[11]", "value": 96, "unit": "%"}, {"measurement": "pKi", "setting": "[12]", "value": 5.70}, {"measurement": "residual activity", "setting": "[13]", "value": 100, "unit": "%"}, {"measurement": "inhibition", "setting": "[14]", "value": 15.7, "unit": "%"}, {"measurement": "inhibition", "setting": "[15]", "value": 12.5, "unit": "%"}, {"measurement": "residual activity", "setting": "[16]", "value": 100, "unit": "%"}, {"measurement": "residual activity", "setting": "[17]", "value": 100, "unit": "%"}, {"measurement": "residual activity", "setting": "[18]", "value": 100, "unit": "%"}, {"measurement": "residual activity", "setting": "[19]", "value": 100, "unit": "%"}, {"measurement": "residual activity", "setting": "[20]", "value": 72, "unit": "%"}, {"measurement": "residual activity", "setting": "[21]", "value": 100, "unit": "%"}]}]}
